Key:
[1] = biological target: T1, PHKG1 (Homo sapiens, UniProt Q16816); assay: KINOMEscan competitive binding; details: n=1, read-out: Percent inhibition, PHKG1
T1 construct: purchased DiscoverX (KINOMEscan)

[2] = biological target: T2, PAK2 (Homo sapiens, UniProt Q13177); assay: KINOMEscan competitive binding; details: n=1, read-out: Percent inhibition, PAK2
T2 construct: purchased DiscoverX (KINOMEscan)

[3] = biological target: T3, ZAP70 (Homo sapiens, UniProt P43403); assay: KINOMEscan competitive binding; details: n=1, read-out: Percent inhibition, ZAP70
T3 construct: purchased DiscoverX (KINOMEscan)
T3 sequence (P43403 1-619): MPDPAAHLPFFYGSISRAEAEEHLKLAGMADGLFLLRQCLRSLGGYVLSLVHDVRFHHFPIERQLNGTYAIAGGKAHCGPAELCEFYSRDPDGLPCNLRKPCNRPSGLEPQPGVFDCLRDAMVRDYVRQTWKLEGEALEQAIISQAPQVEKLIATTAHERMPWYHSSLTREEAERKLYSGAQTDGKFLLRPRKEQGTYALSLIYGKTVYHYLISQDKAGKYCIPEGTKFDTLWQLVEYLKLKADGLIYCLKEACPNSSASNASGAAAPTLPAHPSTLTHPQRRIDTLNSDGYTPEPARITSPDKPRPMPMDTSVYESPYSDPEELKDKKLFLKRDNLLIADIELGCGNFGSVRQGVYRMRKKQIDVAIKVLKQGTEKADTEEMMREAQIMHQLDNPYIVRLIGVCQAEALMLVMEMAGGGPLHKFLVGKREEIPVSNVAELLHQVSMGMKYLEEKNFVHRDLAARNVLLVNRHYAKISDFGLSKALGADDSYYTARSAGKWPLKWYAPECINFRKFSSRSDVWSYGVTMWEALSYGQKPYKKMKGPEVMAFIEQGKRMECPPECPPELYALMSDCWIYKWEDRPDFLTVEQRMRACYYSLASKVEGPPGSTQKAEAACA

[4] = biological target: T4, PAK1 (Homo sapiens, UniProt Q13153); assay: KINOMEscan competitive binding; details: n=1, read-out: Percent inhibition, PAK1
T4 construct: purchased DiscoverX (KINOMEscan)

[5] = biological target: T5, TIE2 (Homo sapiens, UniProt Q02763); assay: KINOMEscan competitive binding; details: n=1, read-out: Percent inhibition, TIE2
T5 construct: purchased DiscoverX (KINOMEscan)
T5 sequence (Q02763 23-1124): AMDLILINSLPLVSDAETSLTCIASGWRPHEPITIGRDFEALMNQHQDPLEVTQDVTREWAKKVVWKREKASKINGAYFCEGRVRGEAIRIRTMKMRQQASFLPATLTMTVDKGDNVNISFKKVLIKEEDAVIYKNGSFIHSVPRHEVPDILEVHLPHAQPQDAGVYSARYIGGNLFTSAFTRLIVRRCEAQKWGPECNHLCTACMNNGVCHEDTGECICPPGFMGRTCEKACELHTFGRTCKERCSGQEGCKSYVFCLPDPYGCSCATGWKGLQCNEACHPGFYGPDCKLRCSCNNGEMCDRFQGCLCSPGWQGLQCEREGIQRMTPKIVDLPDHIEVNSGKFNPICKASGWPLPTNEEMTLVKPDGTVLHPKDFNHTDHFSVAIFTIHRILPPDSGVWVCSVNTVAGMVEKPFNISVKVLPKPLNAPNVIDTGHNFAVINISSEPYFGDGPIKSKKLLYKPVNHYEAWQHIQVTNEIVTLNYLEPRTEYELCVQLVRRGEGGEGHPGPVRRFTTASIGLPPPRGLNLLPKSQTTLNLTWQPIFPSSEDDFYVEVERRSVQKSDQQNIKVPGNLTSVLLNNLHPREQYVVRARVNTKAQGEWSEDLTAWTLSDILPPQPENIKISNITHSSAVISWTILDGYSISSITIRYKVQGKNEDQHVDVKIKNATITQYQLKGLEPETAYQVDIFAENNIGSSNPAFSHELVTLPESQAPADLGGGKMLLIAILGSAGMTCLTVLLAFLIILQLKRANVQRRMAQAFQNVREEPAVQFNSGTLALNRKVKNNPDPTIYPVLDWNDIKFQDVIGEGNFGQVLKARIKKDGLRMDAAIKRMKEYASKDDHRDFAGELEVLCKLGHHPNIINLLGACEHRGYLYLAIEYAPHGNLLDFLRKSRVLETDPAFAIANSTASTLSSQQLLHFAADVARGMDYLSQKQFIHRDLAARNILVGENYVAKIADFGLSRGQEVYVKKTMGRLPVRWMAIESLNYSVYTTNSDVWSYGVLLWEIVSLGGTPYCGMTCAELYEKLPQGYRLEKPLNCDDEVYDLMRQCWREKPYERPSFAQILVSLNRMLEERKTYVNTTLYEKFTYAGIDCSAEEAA

[6] = biological target: T6, SYK (Homo sapiens, UniProt P43405); assay: KINOMEscan competitive binding; details: n=1, read-out: Percent inhibition, SYK
T6 construct: purchased DiscoverX (KINOMEscan)

[7] = biological target: T7, PAK4 (Homo sapiens, UniProt O96013); assay: KINOMEscan competitive binding; details: n=1, read-out: Percent inhibition, PAK4
T7 construct: purchased DiscoverX (KINOMEscan)
T7 sequence (O96013 whole entry): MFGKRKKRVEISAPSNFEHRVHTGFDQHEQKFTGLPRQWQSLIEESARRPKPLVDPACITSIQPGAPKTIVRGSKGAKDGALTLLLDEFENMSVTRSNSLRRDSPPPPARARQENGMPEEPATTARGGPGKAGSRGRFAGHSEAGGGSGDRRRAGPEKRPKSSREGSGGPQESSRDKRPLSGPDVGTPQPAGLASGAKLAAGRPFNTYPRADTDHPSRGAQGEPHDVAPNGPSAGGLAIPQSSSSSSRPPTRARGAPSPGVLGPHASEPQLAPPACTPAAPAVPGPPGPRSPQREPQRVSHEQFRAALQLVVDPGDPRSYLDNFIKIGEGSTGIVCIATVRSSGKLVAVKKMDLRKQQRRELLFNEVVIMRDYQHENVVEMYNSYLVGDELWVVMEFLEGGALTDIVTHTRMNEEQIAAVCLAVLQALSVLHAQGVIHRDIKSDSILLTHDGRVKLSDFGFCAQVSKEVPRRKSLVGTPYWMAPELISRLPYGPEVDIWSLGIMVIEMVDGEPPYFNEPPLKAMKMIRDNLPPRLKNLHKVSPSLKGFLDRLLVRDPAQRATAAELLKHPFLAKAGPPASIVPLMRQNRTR

[8] = biological target: T8, RPS6KA6(Kin.Dom.1) (Homo sapiens, UniProt Q9UK32); assay: KINOMEscan competitive binding; details: n=1, read-out: Percent inhibition, RPS6KA6(Kin.Dom.1)
T8 construct: RPS6KA6(Kin.Dom.1); purchased DiscoverX (KINOMEscan)
T8 sequence (Q9UK32 1-400 limits assumed): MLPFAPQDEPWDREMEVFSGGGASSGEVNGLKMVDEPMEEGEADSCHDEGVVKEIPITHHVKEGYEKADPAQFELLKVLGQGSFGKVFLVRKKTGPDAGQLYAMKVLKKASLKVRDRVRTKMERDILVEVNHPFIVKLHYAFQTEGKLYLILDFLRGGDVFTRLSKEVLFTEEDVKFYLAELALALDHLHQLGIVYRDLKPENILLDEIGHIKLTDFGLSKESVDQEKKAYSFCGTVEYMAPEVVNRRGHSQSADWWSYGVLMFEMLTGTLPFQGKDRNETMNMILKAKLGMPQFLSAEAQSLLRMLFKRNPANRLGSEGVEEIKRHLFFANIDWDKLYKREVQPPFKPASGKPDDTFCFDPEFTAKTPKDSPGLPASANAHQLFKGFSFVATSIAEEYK

[9] = biological target: T9, RAF1 (Homo sapiens, UniProt P04049); assay: KINOMEscan competitive binding; details: n=1, read-out: Percent inhibition, RAF1
T9 construct: purchased DiscoverX (KINOMEscan)
T9 sequence (P04049 whole entry): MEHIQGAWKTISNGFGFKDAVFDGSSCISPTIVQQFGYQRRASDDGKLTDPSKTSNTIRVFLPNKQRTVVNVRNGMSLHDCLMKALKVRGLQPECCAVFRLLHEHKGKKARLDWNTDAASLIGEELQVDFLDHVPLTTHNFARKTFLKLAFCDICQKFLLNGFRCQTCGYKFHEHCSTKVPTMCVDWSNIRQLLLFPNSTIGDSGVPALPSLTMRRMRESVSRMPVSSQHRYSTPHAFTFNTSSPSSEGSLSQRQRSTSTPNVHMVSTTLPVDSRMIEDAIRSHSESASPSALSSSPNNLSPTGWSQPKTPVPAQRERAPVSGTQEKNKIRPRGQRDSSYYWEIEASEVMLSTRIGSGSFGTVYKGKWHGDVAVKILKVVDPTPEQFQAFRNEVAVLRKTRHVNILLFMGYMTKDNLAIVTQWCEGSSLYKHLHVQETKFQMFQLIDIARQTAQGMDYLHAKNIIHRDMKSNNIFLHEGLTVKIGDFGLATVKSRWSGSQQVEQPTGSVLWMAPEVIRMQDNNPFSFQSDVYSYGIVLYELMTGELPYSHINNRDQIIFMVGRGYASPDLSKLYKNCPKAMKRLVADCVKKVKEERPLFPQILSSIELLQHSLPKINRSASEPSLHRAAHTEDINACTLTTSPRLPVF

[10] = biological target: T10, PAK3 (Homo sapiens, UniProt O75914); assay: KINOMEscan competitive binding; details: n=1, read-out: Percent inhibition, PAK3
T10 construct: purchased DiscoverX (KINOMEscan)
T10 sequence (O75914 whole entry): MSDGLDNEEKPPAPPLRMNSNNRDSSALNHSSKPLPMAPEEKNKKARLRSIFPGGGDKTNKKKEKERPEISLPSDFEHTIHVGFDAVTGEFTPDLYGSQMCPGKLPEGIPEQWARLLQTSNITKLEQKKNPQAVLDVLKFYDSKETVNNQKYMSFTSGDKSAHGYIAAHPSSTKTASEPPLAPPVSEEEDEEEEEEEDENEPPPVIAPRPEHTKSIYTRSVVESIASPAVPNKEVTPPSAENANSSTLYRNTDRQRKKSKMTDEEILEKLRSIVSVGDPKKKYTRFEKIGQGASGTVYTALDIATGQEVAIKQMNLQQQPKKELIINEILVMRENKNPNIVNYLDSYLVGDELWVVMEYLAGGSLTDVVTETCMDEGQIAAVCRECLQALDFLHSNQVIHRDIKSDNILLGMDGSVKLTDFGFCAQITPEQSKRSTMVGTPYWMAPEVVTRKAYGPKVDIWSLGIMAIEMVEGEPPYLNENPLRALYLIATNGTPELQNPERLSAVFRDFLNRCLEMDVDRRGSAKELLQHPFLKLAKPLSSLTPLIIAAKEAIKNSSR

[11] = biological target: T11, PTK6 (Homo sapiens, UniProt Q13882); assay: KINOMEscan competitive binding; details: n=1, read-out: Percent inhibition, PTK6
T11 construct: purchased DiscoverX (KINOMEscan)
T11 sequence (Q13882 whole entry): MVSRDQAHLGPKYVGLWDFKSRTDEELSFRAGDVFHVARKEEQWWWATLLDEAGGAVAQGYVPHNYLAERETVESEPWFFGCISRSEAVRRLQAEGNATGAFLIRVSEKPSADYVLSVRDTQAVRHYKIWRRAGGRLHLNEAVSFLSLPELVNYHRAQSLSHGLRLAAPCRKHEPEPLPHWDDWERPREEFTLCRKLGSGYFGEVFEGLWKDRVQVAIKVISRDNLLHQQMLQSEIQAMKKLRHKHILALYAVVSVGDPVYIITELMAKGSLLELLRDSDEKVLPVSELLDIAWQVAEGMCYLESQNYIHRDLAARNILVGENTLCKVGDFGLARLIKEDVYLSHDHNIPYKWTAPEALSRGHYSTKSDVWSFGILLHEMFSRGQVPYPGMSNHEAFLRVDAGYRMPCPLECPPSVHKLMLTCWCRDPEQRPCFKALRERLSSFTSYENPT

[12] = biological target: T12, RPS6KA5(Kin.Dom.1) (Homo sapiens, UniProt O75582); assay: KINOMEscan competitive binding; details: n=1, read-out: Percent inhibition, RPS6KA5(Kin.Dom.1)
T12 construct: RPS6KA5(Kin.Dom.1); purchased DiscoverX (KINOMEscan)
T12 sequence (O75582 1-387 limits assumed): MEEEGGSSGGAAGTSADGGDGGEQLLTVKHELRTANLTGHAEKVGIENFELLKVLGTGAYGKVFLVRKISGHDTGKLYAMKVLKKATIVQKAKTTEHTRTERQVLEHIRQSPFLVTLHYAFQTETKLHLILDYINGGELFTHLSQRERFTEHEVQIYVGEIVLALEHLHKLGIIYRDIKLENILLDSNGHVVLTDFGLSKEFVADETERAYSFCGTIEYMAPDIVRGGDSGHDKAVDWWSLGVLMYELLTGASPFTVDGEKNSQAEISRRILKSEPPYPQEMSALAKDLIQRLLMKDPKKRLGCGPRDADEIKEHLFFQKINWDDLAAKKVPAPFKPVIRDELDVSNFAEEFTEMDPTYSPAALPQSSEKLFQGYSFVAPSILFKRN

[13] = biological target: T13, PDPK1 (Homo sapiens, UniProt O15530); assay: KINOMEscan competitive binding; details: n=1, read-out: Percent inhibition, PDPK1
T13 construct: purchased DiscoverX (KINOMEscan)
T13 sequence (O15530 1-556): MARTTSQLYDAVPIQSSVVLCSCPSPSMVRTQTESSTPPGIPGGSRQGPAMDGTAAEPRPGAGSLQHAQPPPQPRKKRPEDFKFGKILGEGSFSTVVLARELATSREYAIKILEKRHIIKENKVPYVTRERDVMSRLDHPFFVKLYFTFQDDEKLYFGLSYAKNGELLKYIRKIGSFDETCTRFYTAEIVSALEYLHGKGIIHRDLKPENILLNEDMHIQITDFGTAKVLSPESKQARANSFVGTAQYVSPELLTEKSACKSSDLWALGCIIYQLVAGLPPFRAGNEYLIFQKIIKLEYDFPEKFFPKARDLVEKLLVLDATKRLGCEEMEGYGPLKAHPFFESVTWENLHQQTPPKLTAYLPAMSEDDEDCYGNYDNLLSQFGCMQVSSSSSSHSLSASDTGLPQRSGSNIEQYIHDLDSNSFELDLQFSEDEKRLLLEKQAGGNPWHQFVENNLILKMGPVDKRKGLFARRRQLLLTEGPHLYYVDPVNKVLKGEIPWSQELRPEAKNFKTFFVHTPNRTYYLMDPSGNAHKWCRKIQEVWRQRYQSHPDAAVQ

[14] = biological target: T14, SLK (Homo sapiens, UniProt Q9H2G2); assay: KINOMEscan competitive binding; details: n=1, read-out: Percent inhibition, SLK
T14 construct: purchased DiscoverX (KINOMEscan)

[15] = Host cell cytotoxicity assay (CellTiter-Glo); details: human, HepG2 cells
Method: HepG2 cells were grown in Eagle’s Minimum Essential Medium (MEM) containing 10% FBS, 1% nonessential amino acids (NEAA) and 1% penicillin/streptomycin to >50% confluence prior to harvesting. Cells were suspended in media and 3000 cells per well were added onto 384-well clear bottom plates. Prior to addition of the cell suspension, the screening compounds (250 nl) were predispensed into plates using a liquid handler. Plates were incubated for 48 h at 37°C, 5% CO2. After 48 h of incubation, plates were equilibrated at room temperature for 30 min before luminescence signal was measured using CellTiter-Glo Reagent. Plates were kept at room temperature for 10 min to stabilize the signal and then read using a ViewLux luminescence reader. The HepG2 CC50 (from the host cell cytotoxicity assays) and C. parvum mean EC50 (from parasite growth inhibition assays) values were used to calculate selectivity index.

[16] = biological target: T15, PRKCH (Homo sapiens, UniProt P24723); assay: KINOMEscan competitive binding; details: n=1, read-out: Percent inhibition, PRKCH
T15 construct: purchased DiscoverX (KINOMEscan)
T15 sequence (P24723 whole entry): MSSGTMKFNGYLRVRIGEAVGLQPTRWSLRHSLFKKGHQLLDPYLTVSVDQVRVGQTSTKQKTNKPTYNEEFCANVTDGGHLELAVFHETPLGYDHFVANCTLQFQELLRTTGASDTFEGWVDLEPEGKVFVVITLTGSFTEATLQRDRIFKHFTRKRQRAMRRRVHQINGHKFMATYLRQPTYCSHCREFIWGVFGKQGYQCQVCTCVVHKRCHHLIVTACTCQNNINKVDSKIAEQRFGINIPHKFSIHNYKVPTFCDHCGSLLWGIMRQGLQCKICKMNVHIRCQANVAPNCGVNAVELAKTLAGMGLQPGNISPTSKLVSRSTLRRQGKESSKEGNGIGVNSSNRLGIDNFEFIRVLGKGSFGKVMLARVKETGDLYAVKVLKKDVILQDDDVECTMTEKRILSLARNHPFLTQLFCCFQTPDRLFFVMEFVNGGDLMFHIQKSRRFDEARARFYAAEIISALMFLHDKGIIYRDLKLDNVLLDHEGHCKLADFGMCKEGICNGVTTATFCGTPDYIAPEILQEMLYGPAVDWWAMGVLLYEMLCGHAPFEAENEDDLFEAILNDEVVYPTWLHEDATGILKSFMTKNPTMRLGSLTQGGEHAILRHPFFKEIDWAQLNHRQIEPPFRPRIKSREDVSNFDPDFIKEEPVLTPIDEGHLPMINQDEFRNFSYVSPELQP

[17] = biological target: T16, PAK7/PAK5 (Homo sapiens, UniProt Q9P286); assay: KINOMEscan competitive binding; details: n=1, read-out: Percent inhibition, PAK7/PAK5
T16 construct: purchased DiscoverX (KINOMEscan)

With Nc1ncc2c(-c3ccncc3)c[nH]c2n1 [Compound 11] the inhibition at 10 µM [1] was 0%, the inhibition at 10 µM [2] was 0% and the inhibition at 10 µM [3] was 0%. For the same compound, the inhibition at 10 µM [4] was 0%, the inhibition at 10 µM [5] was 0% and the inhibition at 10 µM [6] was 75.9%. It also gave an inhibition at 10 µM [7] of 0%, an inhibition at 10 µM [8] of 0% and an inhibition at 10 µM [9] of 0%. For the same compound, the inhibition at 10 µM [10] was 0%, the inhibition at 10 µM [11] was 0% and the inhibition at 10 µM [12] was 0%. It also gave an inhibition at 10 µM [13] of 79.6%, an inhibition at 10 µM [14] of 75.5% and a CC50 at 48 h [15] of 50.1 µM. For the same compound, the inhibition at 10 µM [16] was 0% and the inhibition at 10 µM [17] was 77.1%.
